Key:
DNMT2 [1] = biological target: T1, DNMT2 (Homo sapiens, UniProt O14717); assay: ^3H-based methyltransferase enzyme activity assay (^3H-SAM incorporation into tRNA^Asp); format: biochemical
T1 construct: Recombinant human DNMT2 (full-length); His-tag; made in house; host or cells: E. coli
T1 sequence (O14717 1-391): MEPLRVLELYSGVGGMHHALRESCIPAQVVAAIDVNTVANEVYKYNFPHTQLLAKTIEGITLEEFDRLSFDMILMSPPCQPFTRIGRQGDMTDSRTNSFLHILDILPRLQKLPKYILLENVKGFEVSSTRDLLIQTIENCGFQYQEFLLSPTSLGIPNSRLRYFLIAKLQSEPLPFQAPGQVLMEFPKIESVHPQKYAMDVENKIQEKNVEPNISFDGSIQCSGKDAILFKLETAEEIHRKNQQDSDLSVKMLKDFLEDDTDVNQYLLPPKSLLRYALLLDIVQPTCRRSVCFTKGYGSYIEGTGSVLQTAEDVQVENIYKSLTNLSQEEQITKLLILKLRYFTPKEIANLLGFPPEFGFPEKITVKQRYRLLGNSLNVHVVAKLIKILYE
Description: Enzymatic DNMT2 inhibition assays were carried out in 100 mM Tris-HCl, pH 8.0, 100 mM NH4OAc, 0.1 mM EDTA, 10 mM MgCl2, and 10 mM DTT as described previously.[3]^,[4] First, the tRNA^Asp substrate was heated to 75 °C for 5 min and cooled down to room temperature (RT) before it was added to the reaction mixture to a final concentration of 5 μM. The reaction mixture contained 250 nM DNMT2 and the ligand compounds at variable concentrations (5% DMSO). Enzymatic reactions were started by the addition of 0.9 μM SAM as a mixture of ^3H-SAM (Hartmann Analytics) resp. cold SAM (NEB) to a final activity of 0.025 μCi μL^−1. Enzyme assays were carried out for 30 min at 37 °C. As a negative control served the reaction mixture without DNMT2 and as a positive control the reaction mixture without test compound. After 30 min, aliquots of 8 μL were taken from the reaction mixture and spotted on Whatman glass microfiber filters (GF/C, 25 mm). The RNA was precipitated on the filters with 5% ice-cold TCA for 15 min. […] Scintillation was measured with a scintillation counter (TriCarb Liquid Scintillation Analyzer 4810 TR; measurement time of 1 min). For IC50-value determination, compounds were analyzed at a minimum of six different concentrations in triplicates. IC50-values were calculated, evaluated, and plotted in GraphPad Prism 8.0.1.

DNMT2 [2] = biological target: T1, DNMT2; assay: Isothermal titration calorimetry (ITC), direct titration; format: binding; details: direct titration at 25 °C; n.b. = no enthalpy signal observable
Description: The DNMT2 protein was purified via size exclusion chromatography eluting in isothermal titration calorimetry (ITC) buffer (50 mM sodium phosphate pH 8.0, 300 mM NaCl, 1 mM EDTA, 2 mM β-mercaptoethanol, 0.1% polysorbate-20) and directly used for measurements.[3] All compounds were dissolved in DMSO to a concentration of 5 mM and were then diluted in ITC buffer to a final concentration of 500 μM. DNMT2 was diluted to a final concentration of 50 μM with 10% DMSO to match the ligand stocks' DMSO concentration. For the ITC measurements, a MicroCal PEAQ-ITC Automated workstation (Malvern Panalytical) with a 200 μL Hastelloy cell and an injection syringe volume of 40 μL was used. All experiments were performed in triplicates at 25 °C unless otherwise noted. For each measurement, 19 compound injections (2 μL each) with an injection speed of 0.5 μL/s were added to the reaction cell containing DNMT2. The spacing time between sequential injections was 300 s, and the stirring speed was set to 750 rpm with a reference power of 42 μW. As control experiments, ligands were titrated into ITC buffer. Data analysis and fitting were carried out using the MicroCal PEAQ-ITC Analysis Software 1.21 and plotted in GraphPad Prism 8.0.1.

DNMT2 [3] = biological target: T1, DNMT2; assay: MST displacement assay with fluorescent FTAD probe; format: binding; parameters: Fnorm (MST screening): unit not given here; details: for Fnorm (% displ.): FTAD displacement / Fnorm (MST screening): ligand 100 μM, FTAD probe
Description: Screening for ligand binding and evaluation of dose-response affinity profiles was performed via microscale thermophoresis (MST) as described previously.[42] The measurements were conducted with a Nanotemper Technologies Monolith NT.115 device. All samples were measured in Monolith standard capillaries at 25 °C. The acquisition mode was set to “Nano-Blue” with an excitation power of 30% and a medium MST power, while the system was controlled using the software MO.Control (version 1.6.1) and for evaluation MO.Affinity Analysis (version 2.3) was used. The samples contained 2 μM DNMT2, 100 nM FTAD (5-FAM-triazolyl-adenosyl-Dab) probe, and 1.3% DMSO in MST buffer (50 mM HEPES, 150 mM NaCl, 1 mM dithiothreitol (DTT), 0.1% PEG-8000, 0.05% polysorbate-20, pH 7.4).[42] All compounds were employed at a final concentration of 100 μM for the initial ligand screening.

DNMT2 [4] = biological target: T1, DNMT2; assay: MST with DEL hit-derived fluorescent tracers 6-8, DNMT2 varied; details: probe 100 nM instead of FTAD, read-out: probe binding affinity (MST, apparent KD)
NSUN6 = biological target: T2, NSUN6 (Homo sapiens, UniProt Q8TEA1); assay: FP selectivity assay with probe 6; format: binding; details: enzyme concentrations up to 20 μM
T2 construct: made in house; host or cells: E. coli
T2 sequence (Q8TEA1 1-469): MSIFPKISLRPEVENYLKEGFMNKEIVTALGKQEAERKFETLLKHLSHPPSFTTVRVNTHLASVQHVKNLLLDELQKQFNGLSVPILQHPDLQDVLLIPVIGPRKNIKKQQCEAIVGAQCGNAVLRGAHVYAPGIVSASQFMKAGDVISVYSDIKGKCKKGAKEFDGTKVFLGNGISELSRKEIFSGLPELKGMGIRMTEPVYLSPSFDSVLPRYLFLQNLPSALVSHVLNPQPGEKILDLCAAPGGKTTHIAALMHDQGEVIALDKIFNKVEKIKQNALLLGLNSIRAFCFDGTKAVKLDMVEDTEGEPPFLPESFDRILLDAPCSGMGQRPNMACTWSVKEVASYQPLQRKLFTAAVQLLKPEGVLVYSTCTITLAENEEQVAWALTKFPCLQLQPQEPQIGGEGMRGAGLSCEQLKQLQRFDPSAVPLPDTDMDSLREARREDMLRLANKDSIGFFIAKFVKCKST
Description: (§1) Fluorescence polarization (FP) measurements with RNA MTases and small-molecule fluorescent tracers were conducted in black Greiner 96-well half-area plates using a Tecan Spark 10M plate reader as described previously.[44] The reader was equipped with polarization filters coupled to a monochromator setup (λex = 480 nm, λem = 530 nm). For selectivity screening, reaction mixtures contained varying concentrations of recombinant enzyme (DNMT1, DNMT2, DNMT3A/3L, NSUN2, NSUN3, or NSUN6; preparation see below) and 10 nM DEL hit-derived probe 6 in MST buffer. For displacement experiments, 100 μM SAH or 10 μM tRNA^Asp were added from buffered stock solutions to the DNMT2-containing mixtures. All measurements were performed as triplicates. Polarization values (in mP) were calculated from polarization-specific parallel and orthogonal fluorescence intensities according to the Tecan in-built calculation routine. KD-values were calculated and plotted in GraphPad Prism 8.0.1.

NSUN3 = biological target: T3, NSUN3 (Homo sapiens, UniProt Q9H649); assay: FP selectivity assay with probe 6; format: binding; details: enzyme concentrations up to 20 μM
T3 construct: made in house
T3 sequence (Q9H649 1-340): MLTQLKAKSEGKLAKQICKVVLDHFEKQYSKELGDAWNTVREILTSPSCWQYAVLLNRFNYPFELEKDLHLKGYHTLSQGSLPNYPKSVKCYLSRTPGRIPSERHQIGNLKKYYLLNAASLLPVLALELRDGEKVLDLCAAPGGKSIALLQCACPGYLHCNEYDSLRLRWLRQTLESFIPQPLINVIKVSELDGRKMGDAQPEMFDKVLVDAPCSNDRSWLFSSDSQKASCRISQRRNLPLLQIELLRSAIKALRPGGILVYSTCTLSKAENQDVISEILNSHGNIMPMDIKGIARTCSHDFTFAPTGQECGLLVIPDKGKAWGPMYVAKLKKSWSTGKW
Description: as §1

DNMT1 = biological target: T4, DNMT1 (Homo sapiens, UniProt P26358); assay: FP selectivity assay with probe 6; format: binding; details: enzyme concentrations up to 20 μM
T4 construct: purchased ActiveMotif 31404
Description: as §1

NSUN2 = biological target: T5, NSUN2 (Homo sapiens, UniProt Q08J23); assay: FP selectivity assay with probe 6; format: binding; details: enzyme concentrations up to 20 μM
T5 construct: made in house; host or cells: E. coli
Description: as §1

DNMT3A/3L = biological target: T6, DNMT3A/3L (UniProt Q9CWR8+Q9Y6K1); assay: FP selectivity assay with probe 6; format: binding, human; details: enzyme concentrations up to 20 μM
T6 construct: made in house; host or cells: E. coli
Description: as §1

DNMT2 [5] = biological target: T1, DNMT2; assay: Fluorescence polarization (FP) assay with probe 6; format: binding
Description: as §1

[6] = Parallel artificial membrane permeation assay (PAMPA); format: in vitro ADME; details: 7 h incubation, duplicates
Description: To determine the passive permeability of selected DNMT2 ligands, a parallel artificial membrane permeation assay (PAMPA) was performed as described previously.[68] The experiment was performed in duplicates with Sigma-Aldrich MAIPNTR10 donor plates with 5 μL of an artificial membrane (1% w/v L-α-phosphatidylcholine in n-dodecane) per well. After incubation for 7 h, the acceptor solutions were evaluated by LC/MS (HP Agilent 1100 Series). The peak areas in the UV chromatogram (λ = 210 nm) were used to calculate the areas under the curve (AUCs).

[7] = test system: tRNA modifications (m^5C) in MOLM-13 cells; assay: LC-MS/MS tRNA modification analysis of treated cells; format: cell-based, human; details: 72 h; for m^5C reduction in tRNA: relative to DMSO
[8] = test system: MOLM-13, Huh-7 and MDA-MB-231 cells; assay: Cell viability assay, pre-cultivation with compound then doxorubicin; format: cell-based, human; details: for susceptibility to subsequent doxorubicin treatment (synergy): compound 50 μM, then doxorubicin
Description: Cell viability assays were conducted with MOLM-13 cells, Huh-7, MDA-MB-231, HEK293, and HCT MTase mutant cell lines (WT, knock-down DNMT2, and knock-down NSUN2) to investigate the DNMT2 inhibiting compounds’ cellular effect. Cells were cultured according to standard protocols: MOLM-13 (RPMI, 10% FBS, 1x Penicillin/Streptomycin, 37 °C, 5% CO2), Huh-7/MDA-MB-231/HEK293 (DMEM, 10% FBS, 1x Penicillin/Streptomycin, 37 °C, 5% CO2) and HCT (McCoys’s 5A Medium, 10% FBS, L-Glutamine, 1x Penicillin/Streptomycin, 37 °C, 5% CO2). Cell viability was assessed using Promega Cell Titer Glo assay kit (MOLM-13, Huh-7, MDA-MB-231, HEK293) or Lonza ViaLight Plus Cell Proliferation and Cytotoxicity BioAssay Kit (HCT cell lines). […] Then, the cell titer reagent was added to each well according to the manufacturer’s protocols, and luminescence was measured using a Tecan Spark 10M plate reader (MOLM-13, Huh-7, MDA-MB-231, HEK293) or Molecular Devices FlexStation (HCT cell lines).

T5 sequence (Q08J23 whole entry): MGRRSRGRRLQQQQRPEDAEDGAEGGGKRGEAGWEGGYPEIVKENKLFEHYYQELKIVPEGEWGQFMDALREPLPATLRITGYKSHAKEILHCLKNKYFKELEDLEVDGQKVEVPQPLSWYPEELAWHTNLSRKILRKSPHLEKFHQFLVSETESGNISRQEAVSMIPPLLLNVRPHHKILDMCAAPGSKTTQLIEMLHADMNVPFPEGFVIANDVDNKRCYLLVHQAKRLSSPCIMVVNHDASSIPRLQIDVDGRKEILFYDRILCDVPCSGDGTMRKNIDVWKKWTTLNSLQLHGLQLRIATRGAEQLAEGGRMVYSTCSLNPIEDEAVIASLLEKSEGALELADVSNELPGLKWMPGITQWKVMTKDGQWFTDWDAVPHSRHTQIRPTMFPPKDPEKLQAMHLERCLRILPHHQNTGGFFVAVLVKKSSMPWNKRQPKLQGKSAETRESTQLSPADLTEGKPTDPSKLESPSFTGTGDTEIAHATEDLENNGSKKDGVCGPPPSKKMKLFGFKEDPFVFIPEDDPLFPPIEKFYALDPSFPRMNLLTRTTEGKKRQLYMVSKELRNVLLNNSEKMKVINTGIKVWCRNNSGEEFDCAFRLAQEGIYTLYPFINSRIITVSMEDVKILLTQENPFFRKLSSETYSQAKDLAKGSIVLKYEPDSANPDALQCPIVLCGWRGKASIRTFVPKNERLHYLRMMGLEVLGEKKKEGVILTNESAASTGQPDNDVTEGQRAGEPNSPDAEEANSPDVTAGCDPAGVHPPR
T4 sequence (P26358 whole entry): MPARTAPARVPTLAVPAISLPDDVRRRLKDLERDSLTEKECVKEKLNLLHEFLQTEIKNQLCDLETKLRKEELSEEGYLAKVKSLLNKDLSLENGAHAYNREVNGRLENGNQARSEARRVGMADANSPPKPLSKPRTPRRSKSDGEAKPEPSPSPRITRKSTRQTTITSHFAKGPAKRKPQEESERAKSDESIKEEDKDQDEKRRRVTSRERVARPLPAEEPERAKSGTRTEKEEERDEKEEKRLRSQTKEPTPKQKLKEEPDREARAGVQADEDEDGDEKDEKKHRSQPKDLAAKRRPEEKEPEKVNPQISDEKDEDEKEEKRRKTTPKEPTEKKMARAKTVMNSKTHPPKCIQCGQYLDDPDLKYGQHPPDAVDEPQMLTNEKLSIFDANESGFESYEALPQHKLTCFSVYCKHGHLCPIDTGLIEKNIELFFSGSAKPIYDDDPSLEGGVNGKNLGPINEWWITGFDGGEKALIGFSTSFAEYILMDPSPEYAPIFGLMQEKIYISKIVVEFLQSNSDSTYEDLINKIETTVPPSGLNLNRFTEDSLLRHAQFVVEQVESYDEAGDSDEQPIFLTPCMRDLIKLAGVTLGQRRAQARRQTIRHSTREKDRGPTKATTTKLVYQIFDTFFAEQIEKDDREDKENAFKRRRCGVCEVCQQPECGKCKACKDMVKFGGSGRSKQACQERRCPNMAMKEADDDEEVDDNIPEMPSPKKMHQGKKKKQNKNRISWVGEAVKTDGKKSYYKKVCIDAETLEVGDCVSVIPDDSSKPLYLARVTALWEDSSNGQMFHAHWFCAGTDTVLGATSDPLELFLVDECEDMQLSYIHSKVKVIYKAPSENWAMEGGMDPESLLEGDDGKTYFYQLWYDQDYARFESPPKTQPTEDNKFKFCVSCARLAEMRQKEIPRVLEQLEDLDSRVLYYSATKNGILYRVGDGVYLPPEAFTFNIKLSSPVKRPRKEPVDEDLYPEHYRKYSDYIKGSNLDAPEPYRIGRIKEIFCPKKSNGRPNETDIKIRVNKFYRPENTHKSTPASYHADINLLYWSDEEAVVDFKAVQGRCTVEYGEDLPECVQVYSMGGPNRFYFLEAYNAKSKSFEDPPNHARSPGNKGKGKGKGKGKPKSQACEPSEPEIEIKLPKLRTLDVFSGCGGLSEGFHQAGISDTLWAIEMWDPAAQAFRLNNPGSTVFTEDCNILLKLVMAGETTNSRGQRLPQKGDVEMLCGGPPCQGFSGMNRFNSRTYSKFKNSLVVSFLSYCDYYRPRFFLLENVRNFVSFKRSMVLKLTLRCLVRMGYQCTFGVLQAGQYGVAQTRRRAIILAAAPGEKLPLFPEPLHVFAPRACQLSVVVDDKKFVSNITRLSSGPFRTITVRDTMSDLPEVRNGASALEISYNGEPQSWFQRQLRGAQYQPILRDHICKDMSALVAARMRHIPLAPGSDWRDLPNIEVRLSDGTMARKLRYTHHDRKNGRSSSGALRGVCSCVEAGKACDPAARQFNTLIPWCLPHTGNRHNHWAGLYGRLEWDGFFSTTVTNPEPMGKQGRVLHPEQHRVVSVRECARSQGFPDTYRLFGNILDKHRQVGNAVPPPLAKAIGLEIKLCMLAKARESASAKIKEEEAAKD

Compound: CNC(=O)C(NC(=O)C(Cc1c[nH]c2cc(Cl)ccc12)NC(=O)C(CO)NCC(C)Cc1ccc2c(c1)OCO2)C1CCCCC1 (stereo not shown) [Compound 4]
- IC50 (DNMT2 [1]): 44400 ± 12900 nM
- ITC (KD) (DNMT2 [2]): n.b.
- FTAD displacement in the MST assay (DNMT2 [3]; DEL hits, result in words): did not lead to FTAD displacement
- Kd (DNMT2 [3]; FTAD probe 100 nM, 2 μM DNMT2, n.b. = no thermophoresis shift observable): 105000 ± 9000 nM

Compound: CCc1ccc(C(=O)NCC2(C(=O)N[C@H](CC(=O)NCC(=O)NCCCCCCNC(=O)c3ccc(-c4c5ccc(=N)c(S(=O)(=O)O)c-5oc5c(S(=O)(=O)O)c(N)ccc45)c(C(=O)O)c3)Cc3ccccc3)CC2)cc1 [Compound 6]
- Kd (DNMT2 [4]): 1650 nM
- probe binding to NSUN6 (FP) (NSUN6): does not bind
- probe binding to NSUN3 (FP) (NSUN3): does not bind
- probe binding to DNMT1 (FP) (DNMT1): does not bind
- probe binding to NSUN2 (FP) (NSUN2): does not bind
- probe binding to DNMT3A/3L (FP) (DNMT3A/3L): does not bind
- fluorescence polarization of probe-DNMT2 complex (DNMT2 [5]; probe 6 with DNMT2 (enzyme-free buffer 5 mP)): 220 mP

Compound: Cc1cccc(N(C)c2nc(N[C@H](C(=O)NCCCCCCNC(=O)CCCCC[N+]3=C(/C=C/C=C/C=C4/N(C)c5ccccc5C4(C)C)C(C)(C)c4ccccc43)[C@@H](C)OC(C)(C)C)nc(N3CCN(c4c(C)cccc4C)CC3)n2)c1 [Compound 7]
- Kd (DNMT2 [4]): 1360 nM

Compound: CCc1ccc(C(=O)NCC2(C(=O)N[C@H](CC(=O)NCC(=O)NCCCCCCNC(=O)c3ccc(-c4c5ccc(=[N+](C)C)cc-5oc5cc(N(C)C)ccc45)c(C(=O)O)c3)Cc3c[nH]c4ccccc34)CC2)cc1 [Compound 8]
- Kd (DNMT2 [4]): 700 nM

Compound: CCc1ccc(C(=O)NCC2(C(=O)NC(CC(=O)NCC(N)=O)Cc3ccc(Cl)cc3)CC2)cc1 (stereo not shown) [Compound 16]
- Papp (PAMPA) [6]: ~ 0.30 10^−6 cm/s
- Papp at 7 h ([6]; PAMPA): 0.3 ×10⁻⁶ cm/s
- change in RNA modifications ([7]; MOLM-13, 5 μM): too low to stimulate any significant change in RNA modifications
- changes of other (non-m^5C) tRNA modifications ([7]; MOLM-13, 50 μM): only minor other modification changes were observed
- m^5C reduction in tRNA ([7]; MOLM-13, 50 μM): ~25%
- cellular viability after cultivation with compound alone ([8]; 50 μM, two passages of three days each): no observable reduction in cellular viability
- susceptibility to subsequent doxorubicin treatment (synergy) [8]: made the cells more susceptible to the subsequent treatment with doxorubicin

Compound: CCc1ccc(C(=O)NCC2(C(=O)N[C@H](Cc3c[nH]c4ccccc34)C(=O)NCC(N)=O)CC2)cc1 [Compound 30]
- ITC (KD) (DNMT2 [2]): n.b.
- Fnorm (% displ.): FTAD displacement (DNMT2 [3]): 5%
- Fnorm (MST screening) (DNMT2 [3]): 861.5

Compound: CCc1ccc(C(=O)NCC2(C(=O)NC(CC(=O)NCC(N)=O)Cc3ccc(C#N)cc3)CC2)cc1 (stereo not shown) [Compound 34]
- Fnorm (% displ.): FTAD displacement (DNMT2 [3]): 13%
- Fnorm (MST screening) (DNMT2 [3]): 879.4
- m^5C reduction in tRNA ([7]; MOLM-13, 50 μM): no reduction of m^5C in tRNA
- susceptibility to subsequent doxorubicin treatment (synergy) [8]: did not lead to a synergistic reduction in viability

Compound: Nc1ncnc2c1ncn2[C@@H]1O[C@H](CSCC[C@H](N)C(=O)O)[C@@H](O)[C@H]1O [SAH, S-adenosylhomocysteine, reference compound]
- displacement of probe 6 from DNMT2 (FP) (DNMT2 [5]; SAH 100 μM or tRNA^Asp 10 μM added to DNMT2 2 μM): able to displace probe 6
